# Test system: CAPAN-1 xenografts
# Experiment: CAPAN-1 xenografts, BRCA 2 deficient (−/−) compared with not deficient (+/+): single dose PLX038A or irinotecan, tumor volume
# Format: in vivo, mice
# Conditions: irinotecan 137 μg/kg single i.p.; FIGS. 4B vs 4C
# Experimental: Female NCr nude mice (N CrTac:NCr-Foxnt1^nu; ˜6-7 weeks old) from Taconic Bioscience (Cambridge City, Ind.) were housed at the UCSF Preclinical Therapeutics Core vivarium (San Francisco, Calif.). All animal studies were carried out in accordance with UCSF Institutional Animal Care and Use Committee. Tumor xenografts were established by subcutaneous injection with MX-1 tumor cells (2×10^6 cells in 100 μl of serum free medium mixed 1:1 with Matrigel) into the right flank of female NCr nude mice.
# Groups (N=4-5/group) were dosed when the group average reached 100-200 mm^3 in size. […] For groups receiving the combination, daily BMN673 dosing began on the same day (FIG. 3A) or after a 4-day delay (FIG. 3B) after dosing PLX038A. Tumor volumes (caliper measurement: 0.5×(length×width^2)) and body weights were measured twice weekly. When vehicle control tumors reached ˜3000 mm^3 in size, mice were treated with the combination of a single dose of PLX038A (15 μmol/kg) and daily BMN673 (0.4 μmol/kg) combination with no delay between dosing (FIG. 3A).
# MX-1 cells are BRCA 1 deficient and CAPAN-1 cells are supplied as either BRCA 2 deficient (−/−) or not deficient (+/+).
smiles,measurement,value
CCc1c2c(nc3ccc(OC(=O)N4CCC(N5CCCCC5)CC4)cc13)-c1cc3c(c(=O)n1C2)COC(=O)[C@]3(O)CC [irinotecan],"effectiveness in BRCA 2 deficient vs non-deficient cells, irinotecan",enhanced

# Source: patent publication US11730836B2, “Synergistic cancer treatment” (priority 2018, dated 2023)
